# Values of other authors, collected in patent US12482537B2, “System of predicting sensitivity of Klebsiella against MeropeneM and method” (priority 2023, dated 2025).
# Test system: carbapenem resistant Klebsiella pneumoniae
# Details: isolates from 2014 to 2017 (252/403)
compound,measurement,value
C[C@@H](O)[C@H]1C(=O)N2C(C(=O)O)=C(S[C@@H]3CN[C@H](C(=O)N(C)C)C3)[C@H](C)[C@H]12 [Meropenem],resistance rate against meropenem,62.5%
